Test system: sugarcane plantlet, cultivar CPO-1372
Details: in vivo
Description: Wax paper containers were cut into 4 cm and 7 cm lengths. One open end of each container was secured with either a 38 um thick LDL film, prepared as described in Example 25, or a 254 um thick soybean oil gel film. The latter was prepared by dissolving Kraton® A1535 poly(styrene-b-ethylene-co-butylene-co-styrene-b-styrene) triblock polymer in soybean oil (MP Biomedicals, Solon, Ohio) at 9 wt. % and 155° C., and casting the hot solution on a glass substrate using a doctor blade with a 5 cm wide and 254 um thick gap, preheated to 155° C. Upon cooling to room temperature, the physical gelation of the triblock polymer in the oil yielded a solid, but highly deformable film. LDL film was affixed to the wax paper container using a thin layer of cyanoacrylate adhesive (Sigma-Aldrich, St. Louis, Mo.). Soybean oil gel film was affixed by heating the film, still adhered to the glass substrate, to near its sol-gel transition (approximately 80° C.), pressing the end of the wax-paper container into the softened film, and cooling to room temperature to re-solidify the film.
The 4 and 7 cm wax paper containers, having their bottom ends secured with LDL or soybean oil gel film, were then loaded approximately one-third full with dry Metro-Mix® 360 growing media. One regenerated sugarcane plantlet was then added to each container. […]

“poly(lactide-b-dimethylsiloxane-b-lactide) [LDL]” was tested, and the “discoloration of plantlet shoots in contact with the closure (phytotoxicity)” value was “no discoloration”.
